Laboratory results taken from PubChem BioAssay AID1963964 (Molecular Pharmacology Branch, DTP, NCI, 2024).

Test system: 997726-040-R-J2-PDC tumor spheroids, viability
Assay: Anticancer human tumor 997726-040-R-J2-PDC patient-derived squamous cell lung carcinoma cell line growth inhibition [PI3K]
Settings: spheroids with HUVEC and MSC; for IC50: curve of first compound; for viability, T/C: stronger effect = lower value
Procedure, shortened: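 Complex 3D spheroids (cancer cells + endothelial HUVEC + mesenchymal stem cells); drug pairs of targeted agent x inavolisib/alpelisib/duvelisib/copanlisib; half-log series from ~Cmax, max 10 microM if Cmax unknown; endpoint viability.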
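Note: spheroids exposed to compounds for seven days before readout.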

`CC(=O)c1c(C)c2cnc(Nc3ccc(N4CCNCC4)cn3)nc2n(C2CCCC2)c1=O` + COc1c(OCCCN2CCOCC2)ccc2c3n(c(=NC(=O)c4cnc(N)nc4)nc12)CCN3 gave an IC50 (second compound 0.00316 µM) greater than 100 nM, an IC50 (second compound 0.01 µM) of 15.6 nM and an IC50 (second compound 0.0316 µM) of less than 0.316 nM. The IC50 (second compound 0.1 µM) was less than 0.316 nM, the IC50 (second compound 0.316 µM) was less than 0.316 nM and the IC50 (second compound 1 µM) was less than 0.316 nM. The viability, T/C (second compound 0.00316 µM, first compound 0.000316 µM) was 73%, the viability, T/C (second compound 0.00316 µM, first compound 0.001 µM) was 77.6% and the viability, T/C (second compound 0.00316 µM, first compound 0.00316 µM) was 69.8%. For the same compound, the viability, T/C (second compound 0.00316 µM, first compound 0.01 µM) was 75%, the viability, T/C (second compound 0.00316 µM, first compound 0.0316 µM) was 60.1% and the viability, T/C (second compound 0.00316 µM, first compound 0.1 µM) was 52.4%. It also gave a viability, T/C (second compound 0.01 µM, first compound 0.000316 µM) of 62.1%, a viability, T/C (second compound 0.01 µM, first compound 0.001 µM) of 60.9% and a viability, T/C (second compound 0.01 µM, first compound 0.00316 µM) of 53.8%. The viability, T/C (second compound 0.01 µM, first compound 0.01 µM) was 55.8%, the viability, T/C (second compound 0.01 µM, first compound 0.0316 µM) was 44.4% and the viability, T/C (second compound 0.01 µM, first compound 0.1 µM) was 39.2%. It also gave a viability, T/C (second compound 0.0316 µM, first compound 0.000316 µM) of 32.2%, a viability, T/C (second compound 0.0316 µM, first compound 0.001 µM) of 42.1% and a viability, T/C (second compound 0.0316 µM, first compound 0.00316 µM) of 35.3%. It also gave a viability, T/C (second compound 0.0316 µM, first compound 0.01 µM) of 34.1%, a viability, T/C (second compound 0.0316 µM, first compound 0.0316 µM) of 28.1% and a viability, T/C (second compound 0.0316 µM, first compound 0.1 µM) of 25.7%. For the same compound, the viability, T/C (second compound 0.1 µM, first compound 0.000316 µM) was 20.6%, the viability, T/C (second compound 0.1 µM, first compound 0.001 µM) was 23.3% and the viability, T/C (second compound 0.1 µM, first compound 0.00316 µM) was 23.9%. It also gave a viability, T/C (second compound 0.1 µM, first compound 0.01 µM) of 21%, a viability, T/C (second compound 0.1 µM, first compound 0.0316 µM) of 18.7% and a viability, T/C (second compound 0.1 µM, first compound 0.1 µM) of 17.1%. For the same compound, the viability, T/C (second compound 0.316 µM, first compound 0.000316 µM) was 5.23%, the viability, T/C (second compound 0.316 µM, first compound 0.001 µM) was 5.65% and the viability, T/C (second compound 0.316 µM, first compound 0.00316 µM) was 6.03%. The viability, T/C (second compound 0.316 µM, first compound 0.01 µM) was 5.28%, the viability, T/C (second compound 0.316 µM, first compound 0.0316 µM) was 5.14% and the viability, T/C (second compound 0.316 µM, first compound 0.1 µM) was 3.76%. It also gave a viability, T/C (second compound 1 µM, first compound 0.000316 µM) of 1.5%, a viability, T/C (second compound 1 µM, first compound 0.001 µM) of 1.26% and a viability, T/C (second compound 1 µM, first compound 0.00316 µM) of 1.01%. The viability, T/C (second compound 1 µM, first compound 0.01 µM) was 1.2%, the viability, T/C (second compound 1 µM, first compound 0.0316 µM) was 1.19% and the viability, T/C (second compound 1 µM, first compound 0.1 µM) was 1.06%.
